Among the test systems are CCRF-CEM; MDA-N; HOP-92; CAKI-1; SK-MEL-5; BT-549; RPMI-8226; SF-268; LOX IMVI; MCF7; SW-620; MDA-MB-231; IGROV-1; SR; ACHN; SNB-75; OVCAR-3; MOLT-4; HOP-62.
What all share (assay): growth of human tumour cells (NCI), 48 h

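Protocol summary: plate cells (96-well), add compound at 5 concentrations, incubate 48 h, interpolate endpoints linearly. The concentration for 50% growth inhibition is given as GI50.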 The source made the active and inactive calls. Rule as the data show it: active = GI50 up to about 1.1 µM and inactive = higher.

For the compound `COC(=O)C(Cc1c(C2Nc3ccccc3C2CC(NC(=O)CNC(C)=O)C(=O)OC)[nH]c2ccccc12)NC(=O)CNC(C)=O` (centres undefined), the GI50 with CCRF-CEM, in the test on MDA-N, in the test on HOP-92, in the test with CAKI-1, with SK-MEL-5 and in the test on BT-549 was > 100 µM (inactive) throughout. The GI50 in the test on RPMI-8226, with SF-268, with LOX IMVI, in the test on MCF7, in the test with SW-620 and in the test on MDA-MB-231 was > 100 µM (inactive) throughout. In addition, the GI50 with IGROV-1 is > 100 µM (inactive); with SR, 16.3 µM (inactive); in the test with ACHN, > 100 µM (inactive); with SNB-75, 7.82 µM (inactive).

`O=C(CCCCCNC(=O)c1ccc(Cl)cc1)NO`: the GI50 was 2.42 µM (inactive) with CCRF-CEM; 2.96 µM (inactive) in the test on MDA-N; 2.81 µM (inactive) in the test on HOP-92; 4.05 µM (inactive) in the test with CAKI-1; 3.24 µM (inactive) in the test with SK-MEL-5; 21.9 µM (inactive) in the test with BT-549. Besides, the GI50 is 3.09 µM (inactive) with RPMI-8226; 2.55 µM (inactive) in the test on OVCAR-3; 6.87 µM (inactive) in the test on SF-268; 4.76 µM (inactive) with LOX IMVI; 6.21 µM (inactive) with MCF7; 2.82 µM (inactive) in the test on SW-620. The GI50 is 3.61 µM (inactive) in the test on MDA-MB-231; 5.16 µM (inactive) in the test with IGROV-1; 2.54 µM (inactive) in the test with SR; 5.19 µM (inactive) in the test on ACHN; 1.88 µM (inactive) in the test with MOLT-4; 1.49 µM (inactive) with SNB-75.

In the case of `N#C/C(=C\N1CCNC1=S)C(=O)c1ccc2ccccc2c1`, the GI50 in the test with MDA-N is > 100 µM (inactive); with HOP-92 it was > 100 µM (inactive); with CAKI-1, > 100 µM (inactive); in the test on SK-MEL-5, > 100 µM (inactive); in the test with BT-549 it was > 100 µM (inactive); with RPMI-8226 it was 89.7 µM (inactive). Also, the GI50 in the test on OVCAR-3, with SF-268, with LOX IMVI, with MCF7, with SW-620 and in the test on MDA-MB-231 was > 100 µM (inactive) in each case. The GI50 in the test on IGROV-1 is > 100 µM (inactive); in the test on SR it was 71.4 µM (inactive); in the test with ACHN, > 100 µM (inactive); with HOP-62, > 100 µM (inactive); in the test with MOLT-4, 37.4 µM (inactive); in the test with SNB-75, > 100 µM (inactive).

With `COc1ccc(/N=C2\C(=N/c3ccc(OC)cc3)N(c3ccccc3[N+](=O)[O-])C(=S)N2c2ccc(OC)cc2)cc1`, the GI50 in the test on MDA-N is 49.8 µM (inactive); in the test on HOP-92, > 100 µM (inactive); in the test on CAKI-1 it was 81.5 µM (inactive); with SK-MEL-5, 35.2 µM (inactive); with BT-549, 34.4 µM (inactive); in the test with RPMI-8226, > 100 µM (inactive). Moreover, the GI50 in the test with OVCAR-3 was > 100 µM (inactive); in the test on SF-268, > 100 µM (inactive); with MCF7 it was > 100 µM (inactive); in the test on SW-620 it was > 100 µM (inactive); in the test on MDA-MB-231, 7.78 µM (inactive); in the test on IGROV-1 it was > 100 µM (inactive). The GI50 with SR is > 100 µM (inactive); in the test with ACHN, > 100 µM (inactive); in the test with HOP-62, 71.3 µM (inactive); with MOLT-4 it was 21.8 µM (inactive); in the test with SNB-75, > 100 µM (inactive).

As to `COc1nc2c(c(=O)n1C)N=C(c1ccccc1)[C@H](C(CC(=O)c1ccccc1)c1ccccc1)C(c1ccccc1)N2` (some centres undefined), the GI50 in the test on CCRF-CEM was > 100 µM (inactive); with MDA-N it was 35.8 µM (inactive); with HOP-92, > 100 µM (inactive); in the test on CAKI-1, 27 µM (inactive); in the test on SK-MEL-5 it was 60.8 µM (inactive); with BT-549, > 100 µM (inactive). In addition, the GI50 was 36.7 µM (inactive) in the test with RPMI-8226; > 100 µM (inactive) in the test with OVCAR-3; > 100 µM (inactive) in the test on LOX IMVI; 36.1 µM (inactive) in the test on MCF7; > 100 µM (inactive) in the test with SW-620; 16.2 µM (inactive) in the test on MDA-MB-231. The GI50 in the test with IGROV-1 is 49.3 µM (inactive); with SR, 78 µM (inactive); in the test on ACHN, 50.4 µM (inactive); with HOP-62, > 100 µM (inactive); in the test with MOLT-4 it was 19.5 µM (inactive); with SNB-75, 10 µM (inactive).

`O=C(O)CCC1(C(=O)O)CCC(=O)c2ccccc21` (centres undefined): the GI50 in the test on CCRF-CEM, in the test with MDA-N, with HOP-92, in the test with CAKI-1, in the test with SK-MEL-5 and in the test on BT-549 was > 100 µM (inactive) throughout. Moreover, the GI50 in the test with RPMI-8226, in the test with OVCAR-3, in the test with SF-268, in the test with LOX IMVI, with MCF7 and in the test with SW-620 was > 100 µM (inactive) throughout. Also, the GI50 in the test on MDA-MB-231, in the test on IGROV-1, in the test with SR, in the test on ACHN, with HOP-62 and with SNB-75 was > 100 µM (inactive) throughout.

Take `CC(C)CC(=O)NC(NC(C)C)(C(F)(F)F)C(F)(F)F`: the GI50 in the test with CCRF-CEM, in the test on MDA-N, in the test on HOP-92, in the test on CAKI-1, with SK-MEL-5 and with BT-549 was > 100 µM (inactive) each time. The GI50 with RPMI-8226, with SF-268, in the test on LOX IMVI, in the test with MCF7, in the test on SW-620 and in the test with MDA-MB-231 was > 100 µM (inactive) each time. For the same compound, the GI50 with IGROV-1, in the test with SR, in the test on ACHN, in the test with HOP-62, in the test on MOLT-4 and in the test on SNB-75 was > 100 µM (inactive) each time.

As for `COc1ccc(N2CCN(Cc3c(C(C)=O)[n+]([O-])c4ccccc4[n+]3[O-])CC2)cc1`, the GI50 in the test with CCRF-CEM is 61.1 µM (inactive); in the test with MDA-N, 36.4 µM (inactive); in the test with HOP-92, 32.5 µM (inactive); in the test on CAKI-1, > 100 µM (inactive); with SK-MEL-5 it was 37.1 µM (inactive); in the test on BT-549, 17 µM (inactive). The GI50 is > 100 µM (inactive) with RPMI-8226; > 100 µM (inactive) in the test on OVCAR-3; 21.1 µM (inactive) in the test on SF-268; 56.4 µM (inactive) in the test on LOX IMVI; 24.2 µM (inactive) with MCF7; 42.2 µM (inactive) in the test on SW-620. Moreover, the GI50 with MDA-MB-231 was 31.2 µM (inactive); in the test on IGROV-1, 32.4 µM (inactive); in the test with SR, 37.8 µM (inactive); in the test with ACHN, 22 µM (inactive); with HOP-62, 16.4 µM (inactive); in the test with SNB-75, 15.6 µM (inactive).

Take `O=S(=O)(O)c1ccc(/N=N/c2ccccc2)cc1`: the GI50 in the test on CCRF-CEM, with MDA-N, with HOP-92, in the test on CAKI-1, in the test on SK-MEL-5 and in the test on BT-549 was > 100 µM (inactive) throughout. The GI50 in the test with RPMI-8226, in the test with OVCAR-3, with SF-268, with LOX IMVI, in the test with MCF7 and in the test on SW-620 was > 100 µM (inactive) throughout. For the same compound, the GI50 in the test with MDA-MB-231, in the test on IGROV-1, in the test on SR, with ACHN, in the test on HOP-62 and in the test with MOLT-4 was > 100 µM (inactive) throughout.

Turning to `Cc1ccc(C(O)c2cnc(C)n2Cc2ccccc2)cc1` (centres undefined), the GI50 is > 100 µM (inactive) in the test on MDA-N; > 100 µM (inactive) in the test with HOP-92; > 100 µM (inactive) with CAKI-1; 79.1 µM (inactive) in the test with SK-MEL-5; > 100 µM (inactive) in the test with BT-549; 46 µM (inactive) in the test on RPMI-8226. For the same compound, the GI50 in the test with OVCAR-3, in the test on SF-268, in the test on LOX IMVI, with MCF7, with SW-620 and in the test with MDA-MB-231 was > 100 µM (inactive) in each case. For the same compound, the GI50 with IGROV-1, in the test on SR, with ACHN, in the test with HOP-62 and in the test with SNB-75 was > 100 µM (inactive) in each case.

For `C=C(Br)COc1ccc2c(C)cc(=O)oc2c1`, the GI50 in the test with CCRF-CEM is > 100 µM (inactive); with MDA-N, > 100 µM (inactive); in the test with HOP-92, 12.5 µM (inactive); with CAKI-1, 99.1 µM (inactive); in the test with SK-MEL-5, 14.6 µM (inactive); in the test on BT-549, > 100 µM (inactive). The GI50 in the test with RPMI-8226 was 44.6 µM (inactive); in the test with OVCAR-3, 86.3 µM (inactive); with SF-268, 69 µM (inactive); in the test on LOX IMVI, > 100 µM (inactive); in the test on MCF7 it was < 0.01 µM (active); in the test on SW-620 it was > 100 µM (inactive). Besides, the GI50 in the test on MDA-MB-231 is 0.951 µM (active); in the test on IGROV-1, 49.3 µM (inactive); in the test with SR it was 44.2 µM (inactive); in the test on ACHN, 60.5 µM (inactive); in the test with HOP-62 it was 69.8 µM (inactive); with MOLT-4, 34.4 µM (inactive).

These data come from ChEMBL document CHEMBL1201862, “PubChem BioAssay data set” (2004).
